Changes are numbered by the printed parent chain. Where “and” joins values, the source holds several entries; their conditions need not be identical. Equal values may be shown once.
Experiments:
PfCRT variant E208A = target: T1, PfCRT variant E208A (Plasmodium falciparum, UniProt Q9N623, A220S/E208A/I356T/K76T/M74I/N326S/N75E/Q271E/R371I); assay: CQ uptake assay, oocytes expressing E208A; format: cell-based
T1 sequence (Q9N623 1-424 M74I/N75E/K76T/E208A/A220S/Q271E/N326S/I356T/R371I): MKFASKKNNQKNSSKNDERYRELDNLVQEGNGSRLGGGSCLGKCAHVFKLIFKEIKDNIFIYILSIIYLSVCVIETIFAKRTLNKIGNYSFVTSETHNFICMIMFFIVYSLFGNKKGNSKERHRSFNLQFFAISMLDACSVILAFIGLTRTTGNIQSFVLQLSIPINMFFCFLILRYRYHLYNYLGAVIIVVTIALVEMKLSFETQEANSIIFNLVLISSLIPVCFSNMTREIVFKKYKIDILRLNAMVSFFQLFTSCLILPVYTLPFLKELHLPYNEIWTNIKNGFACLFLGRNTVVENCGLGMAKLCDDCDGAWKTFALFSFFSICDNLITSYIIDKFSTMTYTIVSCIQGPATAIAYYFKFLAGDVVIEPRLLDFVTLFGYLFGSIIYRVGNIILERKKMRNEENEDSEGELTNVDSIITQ
Experimental: (§1) Site-directed mutagenesis of PfCRT^Dd2 was performed as described using the megaprimer method with overlap extension[21],[54]. The primer pairs used are listed in Supplementary Table 6. Please note that a codon-optimized and oocyte-adapted version of PfCRT^Dd2 was used[22] (Supplementary Fig. 16). The resulting DNA fragment was cloned into the SP64T expression vector and verified by sequencing.
(§2) Oocytes were obtained as described previously. Briefly, adult (>2 years old) female X. laevis frogs (NASCO) were anesthetized in a cooled solution of ethyl 3-amino benzoate methanesulfonate (0.1%, w/v), followed by a surgical removal of parts of the ovary. The ovary lobes were carefully dissected and small pieces of oocytes were incubated in Ca^2+-free ND96 buffer (96 mM NaCl, 2 mM KCl, 1 mM MgCl2 buffered with 5 mM HEPES/NaOH, pH 7.5) supplemented with collagenase D (0.1%, w/v; Roche), BSA (0.5%, w/v), and 9 mm Na2HPO4 at 18 °C for 14-16 h while gentle shaking. After incubation, the oocytes were carefully washed several times with ND96 buffer (96 mM NaCl, 2 mM KCl, 1.8 mM CaCl2, 1 mM MgCl2 buffered with 5 mM HEPES/NaOH, pH 7.5) supplemented with 100 mg l^−1 gentamycin). Defolliculated and healthy-looking stage V-VI oocytes were manually selected for RNA microinjection. The RNA was generated as following: The codon-optimized sequences of PfCRT variants were cloned into the pSP64T expression vector. After vector linearization using the restriction endonucleases BamHI or SalI (New England Biolabs), transcription was performed using the in vitro SP6 mMessage mMachine Kit (Ambion)[34]. The obtained RNA was kept at −80 °C and diluted with nuclease-free water to a concentration of 0.6 μg μl^−1. Precision-bore glass capillary tubes (3.5-inch glass capillaries; Drummond Scientific Co.) were pulled on a vertical puller (P-87 Flaming/Brown micropipette puller, Sutter Instrument Co.), graduated, and placed on a microinjector (Nanoject II Auto-Nanoliter Injector, Drummond Scientific Co.). 50 nl of nuclease-free water alone (control oocytes) or 50 nl of 0.6 μg μl^−1 RNA were injected under stereomicroscopic control. Injected oocytes were incubated for 46–72 h at 18 °C with twice-daily buffer changes before usage in experiments.
Drug uptake assays were performed as described previously[21],[22],[24],[34]. […] The direction of radio-labeled drug transport is here from the mostly acidic extracellular solution (pH 4.5 or 6.0, as indicated) into the oocyte cytosol (pH ∼ 7.2), which corresponds to the efflux of drug from the acidic digestive vacuole (pH 5.2) into the parasite cytoplasm (pH 7.2). The topology of PfCRT in the oolemma is such that both the N- and C-terminus face the extracellular milieu[3],[22]. In the parasite, the N- and C-terminus face the lumen of the digestive vacuole. […] For determination of the amount of drug uptake for each oocyte, the reaction medium was removed and the oocytes were washed three times with 2 ml of ice-cold ND96 buffer. Each oocyte was individually transferred to a scintillation vial containing 5% sodium dodecyl sulfate (200 μl) for lysis. […] Oocytes that were injected with water instead of RNA were analyzed in parallel, representing the uptake of a drug by diffusion and/or endogenous permeation pathways. […] The specific PfCRT-mediated uptake was determined by subtracting the corresponding background value measured in water-injected oocytes from that of PfCRT-expressing oocytes. […]

PfCRT variant E271A = target: T2, PfCRT variant E271A (Plasmodium falciparum, UniProt Q9N623, A220S/I356T/K76T/M74I/N326S/N75E/Q271A/R371I); assay: CQ uptake assay, oocytes expressing E271A; format: cell-based
T2 sequence (Q9N623 1-424 M74I/N75E/K76T/A220S/Q271A/N326S/I356T/R371I): T1 sequence (Q9N623 1-424 M74I/N75E/K76T/E208A/A220S/Q271E/N326S/I356T/R371I) with A208E, E271A
Experimental: as §1, §2
Drug uptake assays were performed as described previously[21],[22],[24],[34]. […] Oocytes that were injected with water instead of RNA were analyzed in parallel, representing the uptake of a drug by diffusion and/or endogenous permeation pathways. […] The specific PfCRT-mediated uptake was determined by subtracting the corresponding background value measured in water-injected oocytes from that of PfCRT-expressing oocytes. […]

[1] = pH 4.5, single replicates, Fig 1d left
[2] = pH 6.0, single replicates, Fig 1d left

CCN(CC)CCCC(C)Nc1ccnc2cc(Cl)ccc12 (stereo not drawn) [CQ, chloroquine]
Activity at pH 6.0 (PfCRT variant E208A; E208A, 50 µM CQ, 1 h, mean ± SEM): 5.43 ± 0.38 pmol h-1 oocyte-1 | R-value (PfCRT variant E208A; E208A, CQ transport at pH 4.5 / pH 6.0): 0.48 and 0.48 ± 0.05 | E208A transport activity pH 4.5 (PfCRT variant E208A; [1]): 3.17 pmol oocyte-1 h-1 and 3.09 pmol oocyte-1 h-1 and 1.68 pmol oocyte-1 h-1 | E208A R-value (PfCRT variant E208A; pH 4.5 vs pH 6.0, Fig 1d left): 0.52 and 0.55 and 0.37 | E208A transport activity pH 6.0 (PfCRT variant E208A; [2]): 6.15 pmol oocyte-1 h-1 and 5.57 pmol oocyte-1 h-1 and 4.57 pmol oocyte-1 h-1 | Activity at pH 4.5 (PfCRT variant E271A; E271A, 50 µM CQ, 1 h, mean ± SEM): 1.01 ± 0.09 pmol h-1 oocyte-1 | R-value (PfCRT variant E271A; E271A, CQ transport at pH 4.5 / pH 6.0): 0.61 ± 0.09 | E271A transport activity pH 4.5 (PfCRT variant E271A; [1]): 1.17 pmol oocyte-1 h-1 and 1.13 pmol oocyte-1 h-1 and 0.65 pmol oocyte-1 h-1 and 0.98 pmol oocyte-1 h-1 | E271A transport activity pH 6.0 (PfCRT variant E271A; [2]): 1.98 pmol oocyte-1 h-1 and 1.71 pmol oocyte-1 h-1 and 1.20 pmol oocyte-1 h-1 and 2.10 pmol oocyte-1 h-1 and 1.74 pmol oocyte-1 h-1

Source: publication PMC10349806 (Nature Communications, 2023)
